{"source": "ChEMBL document CHEMBL1201862", "about": "“PubChem BioAssay data set” (2004)", "key": {"[1]": {"target": "T1, Polyadenylate-binding protein 1 (Homo sapiens, UniProt P11940)", "T1 sequence (P11940 whole entry)": "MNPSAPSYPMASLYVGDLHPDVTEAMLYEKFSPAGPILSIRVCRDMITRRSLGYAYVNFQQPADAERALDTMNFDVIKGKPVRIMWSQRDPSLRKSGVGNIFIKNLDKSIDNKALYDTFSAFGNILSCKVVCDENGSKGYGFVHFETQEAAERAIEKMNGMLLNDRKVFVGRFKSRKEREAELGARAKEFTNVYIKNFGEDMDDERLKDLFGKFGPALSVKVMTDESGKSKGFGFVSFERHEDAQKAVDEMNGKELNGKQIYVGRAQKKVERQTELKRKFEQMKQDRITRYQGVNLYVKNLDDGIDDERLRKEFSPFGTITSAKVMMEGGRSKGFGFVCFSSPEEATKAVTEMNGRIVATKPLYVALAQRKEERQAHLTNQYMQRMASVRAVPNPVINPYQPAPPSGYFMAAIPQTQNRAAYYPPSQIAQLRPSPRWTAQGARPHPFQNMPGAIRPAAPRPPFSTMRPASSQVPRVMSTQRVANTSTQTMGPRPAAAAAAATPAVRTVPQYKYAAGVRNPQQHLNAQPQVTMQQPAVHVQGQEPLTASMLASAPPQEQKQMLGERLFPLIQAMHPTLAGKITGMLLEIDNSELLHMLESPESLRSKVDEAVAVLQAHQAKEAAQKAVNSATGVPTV", "assay": "MLLE binding blockers, Cy5 peptide tracer – biochemical, fluorescence polarization, Cy5-PAM2 peptide, secondary, miRNA deadenylation inhibitor project, dose response (AID 602260)", "format": "functional", "settings": "read-out: IC50_Mean"}, "[2]": {"target": "T2, Zinc finger protein mex-5 (Caenorhabditis elegans, UniProt Q9XUB2)", "T2 sequence (Q9XUB2 whole entry)": "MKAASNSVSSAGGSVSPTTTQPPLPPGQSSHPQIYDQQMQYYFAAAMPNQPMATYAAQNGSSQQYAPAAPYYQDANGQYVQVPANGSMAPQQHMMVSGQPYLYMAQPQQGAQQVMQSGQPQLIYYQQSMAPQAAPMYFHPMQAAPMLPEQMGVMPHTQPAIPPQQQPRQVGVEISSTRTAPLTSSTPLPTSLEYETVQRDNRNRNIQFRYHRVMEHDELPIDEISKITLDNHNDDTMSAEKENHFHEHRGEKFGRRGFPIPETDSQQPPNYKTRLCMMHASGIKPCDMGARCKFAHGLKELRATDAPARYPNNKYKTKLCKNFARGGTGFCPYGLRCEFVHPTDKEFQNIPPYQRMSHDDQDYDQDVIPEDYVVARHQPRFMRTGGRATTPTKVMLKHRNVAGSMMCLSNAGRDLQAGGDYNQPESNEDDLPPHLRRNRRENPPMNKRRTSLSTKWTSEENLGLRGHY", "assay": "potency of MEX-5 RNA-binding blockers – biochemical, C. elegans, fluorescence polarization, dose response (AID 1960)"}, "[3]": {"target": "Glucose-6-phosphate 1-dehydrogenase (Homo sapiens, UniProt P11413)", "sequence (P11413 whole entry)": "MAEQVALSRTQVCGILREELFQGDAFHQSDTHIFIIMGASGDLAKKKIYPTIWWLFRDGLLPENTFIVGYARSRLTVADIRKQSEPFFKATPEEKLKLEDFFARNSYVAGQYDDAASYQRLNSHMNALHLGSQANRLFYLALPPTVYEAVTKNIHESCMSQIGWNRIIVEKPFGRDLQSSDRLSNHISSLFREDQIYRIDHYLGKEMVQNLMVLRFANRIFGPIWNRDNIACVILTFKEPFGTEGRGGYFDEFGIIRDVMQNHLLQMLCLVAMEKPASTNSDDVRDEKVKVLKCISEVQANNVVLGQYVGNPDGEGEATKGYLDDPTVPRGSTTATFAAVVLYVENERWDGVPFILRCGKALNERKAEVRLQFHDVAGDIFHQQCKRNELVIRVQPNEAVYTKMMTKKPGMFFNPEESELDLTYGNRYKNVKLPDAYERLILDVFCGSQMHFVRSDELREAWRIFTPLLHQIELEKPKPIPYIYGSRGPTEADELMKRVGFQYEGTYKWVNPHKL", "assay": "inhibition of Homo sapiens G6PD, dose series – biochemical, fluorescence, selectivity assay for P. falciparum G6PD inhibitor project, dose response (AID 504792)", "format": "functional"}, "Hexokinase HKDC1": {"target": "T3, Hexokinase HKDC1 (Homo sapiens, UniProt Q2TB90)", "T3 sequence (Q2TB90 whole entry)": "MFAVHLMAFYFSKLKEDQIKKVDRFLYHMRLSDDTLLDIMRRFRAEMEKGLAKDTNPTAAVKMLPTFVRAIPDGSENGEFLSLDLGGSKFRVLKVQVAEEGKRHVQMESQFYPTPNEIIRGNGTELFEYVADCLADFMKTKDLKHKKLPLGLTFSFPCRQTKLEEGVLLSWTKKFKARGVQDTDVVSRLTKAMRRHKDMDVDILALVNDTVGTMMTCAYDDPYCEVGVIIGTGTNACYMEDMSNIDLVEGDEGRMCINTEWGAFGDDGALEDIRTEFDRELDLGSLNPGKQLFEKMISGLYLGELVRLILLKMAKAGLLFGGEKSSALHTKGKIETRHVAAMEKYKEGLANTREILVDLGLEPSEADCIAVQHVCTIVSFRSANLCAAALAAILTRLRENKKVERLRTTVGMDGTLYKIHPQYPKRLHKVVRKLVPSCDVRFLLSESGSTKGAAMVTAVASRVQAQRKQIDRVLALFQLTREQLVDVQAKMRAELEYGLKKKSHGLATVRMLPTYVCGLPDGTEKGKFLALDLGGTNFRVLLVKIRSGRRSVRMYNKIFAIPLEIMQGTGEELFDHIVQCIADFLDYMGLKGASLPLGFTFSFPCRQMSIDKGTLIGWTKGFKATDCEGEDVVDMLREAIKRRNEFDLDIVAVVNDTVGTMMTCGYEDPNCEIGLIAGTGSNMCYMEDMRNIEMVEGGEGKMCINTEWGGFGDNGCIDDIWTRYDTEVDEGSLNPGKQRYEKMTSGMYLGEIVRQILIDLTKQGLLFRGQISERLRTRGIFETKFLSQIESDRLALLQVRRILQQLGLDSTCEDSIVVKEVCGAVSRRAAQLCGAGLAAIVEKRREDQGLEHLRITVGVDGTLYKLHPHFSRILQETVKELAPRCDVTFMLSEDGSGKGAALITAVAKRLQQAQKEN", "assay": "inhibition of HKDC1 glucose phosphorylation – biochemical, W721R variant, dose response (AID 504729)", "format": "functional"}, "[4]": {"target": "T4, RNA-binding protein pos-1 (Caenorhabditis elegans, UniProt G5EF15)", "T4 sequence (G5EF15 whole entry)": "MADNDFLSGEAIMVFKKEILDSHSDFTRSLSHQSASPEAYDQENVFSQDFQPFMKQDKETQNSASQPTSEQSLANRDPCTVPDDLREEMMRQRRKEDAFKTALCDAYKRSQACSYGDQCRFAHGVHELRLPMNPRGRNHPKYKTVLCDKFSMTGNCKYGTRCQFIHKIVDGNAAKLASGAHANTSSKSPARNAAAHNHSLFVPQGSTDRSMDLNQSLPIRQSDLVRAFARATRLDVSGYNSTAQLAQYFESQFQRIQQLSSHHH", "assay": "disruptors of C. elegans POS-1 RNA interaction – biochemical, fluorescence polarization, dose response (AID 1964);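 also: purified POS-1 fused to maltose binding protein made in E. coli; potency of compounds blocking POS-1 binding to fluorescent RNA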"}, "[5]": {"target": "T1, Polyadenylate-binding protein 1", "assay": "MLLE domain peptide-binding blockers, IC50 – biochemical, fluorescence polarization, FITC-PAM2 peptide, dose response (AID 602259)", "format": "functional", "settings": "read-out: IC50_Mean"}, "[6]": {"assay": "Cytotoxicity screening for potential Inhibitors of Bacterial Capsule Biogenesis. [Related pubchem assays (depositor defined):AID488970]", "format": "functional"}, "[7]": {"target": "T5, Scavenger receptor class B member 1 (Mus musculus, UniProt Q61009)", "T5 sequence (Q61009 whole entry)": "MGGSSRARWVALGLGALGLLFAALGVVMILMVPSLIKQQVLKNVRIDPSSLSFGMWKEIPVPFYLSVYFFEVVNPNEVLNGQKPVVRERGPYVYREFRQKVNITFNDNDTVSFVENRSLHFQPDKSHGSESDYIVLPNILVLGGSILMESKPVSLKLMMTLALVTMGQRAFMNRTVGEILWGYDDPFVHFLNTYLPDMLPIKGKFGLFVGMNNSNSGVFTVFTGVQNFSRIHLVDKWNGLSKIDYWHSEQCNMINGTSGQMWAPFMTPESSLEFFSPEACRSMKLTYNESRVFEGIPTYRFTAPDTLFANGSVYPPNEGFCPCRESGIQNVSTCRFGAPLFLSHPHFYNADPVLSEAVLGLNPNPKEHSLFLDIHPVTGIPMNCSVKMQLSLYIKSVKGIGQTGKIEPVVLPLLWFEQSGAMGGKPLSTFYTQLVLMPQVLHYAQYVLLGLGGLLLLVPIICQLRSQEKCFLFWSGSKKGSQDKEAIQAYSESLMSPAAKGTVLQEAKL", "assay": "mouse SR-BI DiI-HDL uptake blockers – ldlA[mSR-BI] cells, fluorescence, cherry pick, dose response (AID 493194);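 also: cellular uptake of fluorescent DiI-labeled HDL measured as cell fluorescence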", "format": "functional, cell-based"}, "Bcl-2-like protein 10": {"target": "Bcl-2-like protein 10 (Homo sapiens, UniProt Q9HD36)", "sequence (Q9HD36 whole entry)": "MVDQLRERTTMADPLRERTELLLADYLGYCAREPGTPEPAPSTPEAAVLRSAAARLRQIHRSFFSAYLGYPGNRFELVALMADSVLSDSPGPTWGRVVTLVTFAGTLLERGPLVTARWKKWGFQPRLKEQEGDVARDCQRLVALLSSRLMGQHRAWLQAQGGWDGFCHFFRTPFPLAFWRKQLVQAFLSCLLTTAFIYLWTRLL", "assay": "Bcl-B/TR3 peptide binding disruption – biochemical, fluorescence polarization, FITC-TR3 peptide, selectivity assay for Bfl-1 inhibitor project, primary screen (AID 748);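 also: fluorescence polarization from a fluorescein-labelled TR3 peptide binding purified Bcl-B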"}}, "note": "Active and inactive are the calls of the source.", "data": [{"molecule": "CN(C)Cc1cc(O)c(CN(C)C)cc1O", "values": [{"measurement": "IC50", "setting": "[1]", "result": "> 66 µM (inactive)"}, {"measurement": "EC50", "setting": "[2]", "result": "5.82 µM (active)"}, {"measurement": "IC50", "setting": "[3]", "result": "34.7 µM (inactive)"}, {"measurement": "IC50", "setting": "Hexokinase HKDC1", "result": "49.6 µM (inactive)"}, {"measurement": "EC50", "setting": "[4]", "result": "22.3 µM (inconclusive)"}, {"measurement": "IC50", "setting": "[5]", "result": "50.7 µM (inactive)"}]}, {"molecule": "C=CCOc1ccc(C2c3c(oc4ccccc4c3=O)C(=O)N2CCCN2CCOCC2)cc1", "note": "(centres undefined)", "values": [{"measurement": "CC50", "setting": "[6]", "result": "> 100 µM (active)"}]}, {"molecule": "Cc1ccccc1CN1CCN(C(=O)c2ccc(S(=O)(=O)NCc3ccco3)cc2)CC1", "values": [{"measurement": "AC50", "setting": "[7]", "result": "0.092 µM (active)"}]}, {"molecule": "Cc1cc2cc(CN(Cc3ccco3)S(=O)(=O)c3c(C)ccc4nsnc34)c(=O)[nH]c2cc1C", "values": [{"measurement": "IC50", "setting": "Bcl-2-like protein 10", "result": "> 100 µM (inactive)"}]}]}
